Measured values from patent publication US6194422A, “Anthracycline derivatives” (Pharmacia & Upjohn SpA, priority 1997, dated 2001).

Target: Aβ1-40 peptide monomer (Homo sapiens, UniProt P05067)
Assay type: biochemical
Settings: 50 μM test compound, 20 μM Aβ1-40 monomer, 4 μM pre-formed sonicated Aβ1-40 fibrils, pH 7.4, two hours at 37° C., HPLC
Protocol: The activity of the disclosed compounds is assessed according to the procedure reported below. An Aβ1-40 peptide monomer stock solution is prepared by dissolving the peptide in dimethylsulfoxide at a concentration of 33.33 mg/mL. The stock solution is further diluted 1 to 11.5 with dimethylsulfoxide. This solution is then diluted with 10 mM phosphate buffer pH 7.4 containing 150 mM sodium chloride to prepare the test solution. To an eppendorf tube containing 47 μL of Aβ1-40 peptide monomer solution are added 3 μL of a 830 μM water solution of the test compound containing 66.4 μM, based on the Aβ1 -40 monomer content, of pre-formed sonicated Aβ1-40 fibrils: the resulting solution is 20 μM in Aβ1-40 monomer, 50 μM in the test compound and contains 4 μM, based on the Aβ1-40 monomer content, of pre-formed sonicated Aβ1-40 fibrils. The aggregation is allowed to proceed for two hours at 37° C. The suspension is then centrifuged at 15000 rpm for 15 minutes at +4° C., the supernatant is collected and the Aβ1 -40 monomer is quantitated by HPLC. The activity is expressed as the percent of inhibition of the aggregation of a 20 μM Aβ1-40 monomer solution stimulated by 4 μM, based on the Aμ1-40 monomer content, pre-formed sonicated Aμ1-40 fibrils.

Sequence of Aβ1-40 peptide monomer (P05067 672-711 limits assumed): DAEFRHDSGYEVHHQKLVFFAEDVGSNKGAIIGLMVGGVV

## COc1cccc2c1C(=O)c1c(O)c3c(c(O)c1C2=O)CC1(C)C(=NOCc2ccccc2)CC3N1Cc1ccncc1 (stereo not drawn) [Compound 1q, 8-N-(4-pyridylmethyl)anthrazalone O-benzyloxime]
  % inhibition (of the aggregation of Aβ1-40 monomer): 24.2%

## CON=C1CC2c3c(O)c4c(c(O)c3CC1(C)N2Cc1ccncc1)C(=O)c1cccc(OC)c1C4=O (stereo not drawn) [Compound 1p, 8-N-(4-pyridylmethyl)anthrazalone O-methyloxime]
  % inhibition (of the aggregation of Aβ1-40 monomer): 31.7%

## C=CCN1C2CC(=NOC)C1(C)Cc1c(O)c3c(c(O)c12)C(=O)c1c(OC)cccc1C3=O (stereo not drawn) [Compound 1c, 8-N-allylanthrazalone O-methyl-oxime]
  % inhibition (of the aggregation of Aβ1-40 monomer): 36.0%

## CON=C1CC2c3c(O)c4c(c(O)c3CC1(C)N2Cc1ccc(OC)c(OC)c1)C(=O)c1cccc(OC)c1C4=O (stereo not drawn) [Compound 1e, 8-N-(3.4-dimethoxybenzyl)anthrazalone O-methyloxime]
  % inhibition (of the aggregation of Aβ1-40 monomer): 26.2%

## CCON=C1CC2NC1(C)Cc1c(O)c3c(c(O)c12)C(=O)c1c(OC)cccc1C3=O (single isomer, unassigned) [lac-I, Anthrazalone O-ethyloxime]
  % inhibition (of the aggregation of Aβ1-40 monomer): 54.2%

## COc1ccc(CN2C3CC(=NO)C2(C)Cc2c(O)c4c(c(O)c23)C(=O)c2c(OC)cccc2C4=O)cc1OC (stereo not drawn) [Compound 1a, 8-N-(3,4-dimethoxybenzyl) anthrazalone oxime]
  % inhibition (of the aggregation of Aβ1-40 monomer): 22.9%
